Experimental data from patent publication US7446107B2, “Crystalline forms of conazoles and methods of making and using the same” (Transform Pharmaceuticals, Inc., priority 2002, dated 2008).

Tests used:
[1] = Hygroscopicity determination (humidity chambers); type: physicochemical; conditions: 75% relative humidity, 25° C., 8 hours
Protocol: The hygroscopicity profiles for a sample from each of vials 1-5, as well as cis-itraconazole free base, were determined by exposing a sample from each of vials 1-5 to four different environments of varying relative humidity (namely, 0%, 30%, 57%, and 75%), and incubating the samples in that environment for about 8 hours at room temperature (20-25° C.). The humidity chambers consisted of desiccators with desiccants/salt baths in the bottom, above which the open vials containing samples were suspended.
The relative hygroscopicity of each sample was determined using methods well known to one skilled in the pharmaceutical arts as reported in “Pharmaceutical Preformulation & Formulation: A Practical Guide From Candidate Drug Selection to Commercial Dosage Form,” Ed. Mark Gibson, published by IHS Health Group Co, p. 49 (2001), which is incorporated herein by reference in its entirety.

[2] = Solubility in pH 1 buffer (HPLC-UV); type: physicochemical
Protocol: Beginning with the longest time point, pH 1 buffer (1 N HCl adjusted to pH 1 using 1 N NaOH) was added to each of the wells containing samples until completion of the shortest time points. The samples were vigorously stirred throughout the experiment. At the end of the assay, the solution and solid states of all the samples were separated by centrifugation in a polyvinylidene fluoride 96-well filter plate for 2 minutes at 500 xg.
Approximately 30 μl of solution was collected from the solution state of each sample and diluted in 120 μl of methanol in glass vials. Aluminum caps were crimped on the vial tops to prevent evaporation of methanol.

[3] = cited from earlier work
[4] = Physical form after incubation in pH 1 buffer (PXRD); type: physicochemical; conditions: 2 hours, room temperature
Protocol: 70 μl of pH 1 buffer (1 N HCl adjusted to pH 1 using 1 N NaOH) was added to the same well. The sample was incubated at room temperature with vigorous mixing for 2 hours. At the end of the assay, the 384 well plate was centrifuged for 2 minutes at 500 xg and the supernatant was removed by aspiration.
The remaining solid state was analyzed by X-ray powder diffraction in a borosilicate tube, but otherwise using the same equipment, software, procedures, and parameters described in Example 1.

[5] = Solubility in THF (observation during synthesis); type: physicochemical; conditions: up to 70° C.
Excerpt: Thereafter, the vials were removed from the oven, the caps from all the bottles were removed, and the samples were allowed to evaporate in air under ambient conditions. Once significant amounts of solids were present in a sample, the remaining liquid in the sample was removed by pipetting out the liquid phase and using suction filtration with Whatman filter paper to rescue any solid that may have been dispersed in the liquid phase. The remaining solid in the liquid phase and the filtrate were dried in the vacuum oven (VWR Scientific, Model # 1400E) under vacuum for at least 12 hours. With regard to vial 3, the solid crashed out of solution as soon as the acid was added and never went into solution even at 70° C.; however, the solid in the sample was harvested in the same manner as the other samples.

CCC(C)n1ncn(-c2ccc(N3CCN(c4ccc(OCC5COC(Cn6cncn6)(c6ccc(Cl)cc6Cl)O5)cc4)CC3)cc2)c1=O.O=C(O)C(O)C(O)C(=O)O (racemic) [cis-itraconazole DL-tartrate]
relative hygroscopicity [1]: slightly hygroscopic (greater than 0.2% and less than 2% weight loss after incubation in 75% relative humidity at 25 °C for 8 hours)

CCC(C)n1ncn(-c2ccc(N3CCN(c4ccc(OC[C@H]5CO[C@](Cn6cncn6)(c6ccc(Cl)cc6Cl)O5)cc4)CC3)cc2)c1=O (mixture of isomers) [cis-itraconazole free base, (±)cis-4-[4-[4-[4-[[2-(2,4-dichlorophenyl)-2-(1H-1,2,4-triazol-1-ylmethyl)-1,3-dioxolan-4-yl]methoxy]phenyl]-1-piperazinyl]phenyl]-2,4-dihydro-2-(1-methylpropyl)-3H-1,2,4-triazol-3-one, reference compound]
change of solubility with time ([2]; measured period up to 120 minutes): did not change over the measured period of time | solubility in water [3]: only very sparingly soluble in water

CCC(C)n1ncn(-c2ccc(N3CCN(c4ccc(OCC5COC(Cn6cncn6)(c6ccc(Cl)cc6Cl)O5)cc4)CC3)cc2)c1=O.O=S(=O)(O)c1ccccc1 (stereo not drawn) [cis-itraconazole benzensulfonate]
relative hygroscopicity [1]: hygroscopic (greater than 2% and less than 15% weight loss after incubation in 75% relative humidity at 25 °C for 8 hours)

CCC(C)n1ncn(-c2ccc(N3CCN(c4ccc(OCC5COC(Cn6cncn6)(c6ccc(Cl)cc6Cl)O5)cc4)CC3)cc2)c1=O.O=C(O)C=CC(=O)O (stereo not drawn) [cis-itraconazole fumaric acid co-crystal]
relative hygroscopicity [1]: slightly hygroscopic (greater than 0.2% and less than 2% weight loss after incubation in 75% relative humidity at 25 °C for 8 hours) | solid state form after incubation [4]: did not change form | solubility relative to free base ([2]; 15 minutes): at least 4 fold | solubility relative to free base ([2]; 4 hours): approximately 1.5 fold

CCC(C)n1ncn(-c2ccc(N3CCN(c4ccc(OCC5COC(Cn6cncn6)(c6ccc(Cl)cc6Cl)O5)cc4)CC3)cc2)c1=O.O=P(O)(O)O (stereo not drawn) [cis-itraconazole phosphate]
relative hygroscopicity [1]: slightly hygroscopic (greater than 0.2% and less than 2% weight loss after incubation in 75% relative humidity at 25 °C for 8 hours)

CCC(C)n1ncn(-c2ccc(N3CCN(c4ccc(OCC5COC(Cn6cncn6)(c6ccc(Cl)cc6Cl)O5)cc4)CC3)cc2)c1=O.O=S(=O)(O)O (stereo not drawn) [cis-itraconazole sulfate]
relative hygroscopicity [1]: hygroscopic (greater than 2% and less than 15% weight loss after incubation in 75% relative humidity at 25 °C for 8 hours) | solubility in THF [5]: insoluble or only slightly soluble in THF
